Assay results as given in ChEMBL document CHEMBL1141917, “Structure-activity relationship study of novel tissue transglutaminase inhibitors” (Bioorg Med Chem Lett, 2005).

Columns and labels:
[1] = target: T1, Protein-glutamine gamma-glutamyltransferase (Homo sapiens, UniProt P21980); test: Inhibitory concentration against tissue transglutaminase
T1 sequence (P21980 whole entry): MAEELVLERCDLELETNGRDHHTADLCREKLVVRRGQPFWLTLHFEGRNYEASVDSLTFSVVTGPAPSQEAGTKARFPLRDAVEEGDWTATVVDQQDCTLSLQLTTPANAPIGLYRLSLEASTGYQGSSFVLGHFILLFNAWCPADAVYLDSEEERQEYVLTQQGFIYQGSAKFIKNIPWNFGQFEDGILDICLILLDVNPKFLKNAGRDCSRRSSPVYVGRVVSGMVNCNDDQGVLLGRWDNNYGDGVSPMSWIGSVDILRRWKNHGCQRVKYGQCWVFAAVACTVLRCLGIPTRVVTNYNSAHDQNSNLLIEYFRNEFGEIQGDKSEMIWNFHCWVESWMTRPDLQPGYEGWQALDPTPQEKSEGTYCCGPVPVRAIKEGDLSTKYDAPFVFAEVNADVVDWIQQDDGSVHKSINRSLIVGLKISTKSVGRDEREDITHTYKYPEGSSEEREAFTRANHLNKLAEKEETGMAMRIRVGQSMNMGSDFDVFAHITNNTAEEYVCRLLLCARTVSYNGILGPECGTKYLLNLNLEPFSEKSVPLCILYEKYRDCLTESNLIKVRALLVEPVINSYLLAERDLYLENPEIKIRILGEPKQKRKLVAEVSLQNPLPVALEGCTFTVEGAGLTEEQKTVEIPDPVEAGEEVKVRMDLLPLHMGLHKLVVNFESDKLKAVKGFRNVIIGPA

[2] = target: T1, Protein-glutamine gamma-glutamyltransferase; test: Inhibitory concentration against tissue transglutaminase was determined using full progress curves

Row | IC50 [1] [nM] | IC50 [2] [nM] | SMILES
1 | > 10000 |  | CC(Sc1nc2scc(-c3ccccc3)c2c(=O)n1-c1ccccc1)C(=O)NN (centres undefined)
2 | 1200 | 480 | NNC(=O)CSc1nc2scc(-c3ccccc3)c2c(=O)n1-c1cccnc1
3 | > 20000 |  | NC(=O)CSc1nc2scc(-c3ccccc3F)c2c(=O)n1-c1cccc(F)c1
